Reference: patent publication US20240350476A1 (priority 2023, published 2024)

Columns and labels:
[1] = measured approximately 1 minute after placing the pouch adjacent to the gum line; five blindfolded volunteer subjects, one-hour break between tests
Method: Five volunteer subjects compared the effects of nicotine consumption and 6-methylnicotine consumption on blood pressure Subjects were blindfolded and had their blood pressure measured before using a pouch (to provide a baseline blood pressure) and re-measured approximately 1 minute after placing a nicotine pouch or a 6-methylnicotine pouch adjacent to the gum line. All subjects performed the test with a nicotine pouch and with a 6-methylnicotine pouch on the same day with a one-hour break between the tests.

[2] = Method: Six volunteer subjects who are regular users of nicotine pouches containing 8 mg of nicotine were each administered an oral pouch of the disclosure containing 3 mg of 6-methylnicotine. Each subject used the 6-methylnicotine pouch in the same manner as a nicotine pouch, by placing the pouch inside the mouth and adjacent to the lip and gum.
[3] = oral dissolvable film containing 1.6 mg of 6-methylnicotine, placed inside the cheek, compared to a film containing 2 mg of nicotine; four volunteer subjects, self-reported
Method: Four volunteer subjects were provided with an oral dissolvable film according to the disclosure containing 1.6 mg of 6-methylnicotine and an oral dissolvable film containing 2 mg of nicotine. Each subject placed the nicotine strip against the inside of their cheek and noted their physiological response. Subjects abstained from nicotine or tobacco usage for 1 hour after consuming the nicotine strip, then placed the 6-methylnicotine strip according to the disclosure against the inside of their cheek and noted their physiological response.

Cc1ccc([C@@H]2CCCN2C)cn1 (stereo in doubt) [6-methylnicotine]
blood pressure following usage of a 6-methylnicotine pouch versus a nicotine pouch [1]: No significant difference | physiological effect, such as a "head rush" experienced during pouch usage ([2]; in vivo, po): more potent physiological effect | desire to use nicotine- or tobacco-based products after use of the pouch ([2]; oral pouch containing 3 mg of 6-methylnicotine, six volunteer subjects who regularly use 8 mg nicotine pouches, self-reported): zero desire to use nicotine- or tobacco-based products | physiological response (as a perceived "head rush") [3]: stronger physiological response
